Read-outs that look alike come from different tables or passages of the source. Marks after values point to notes of the source that are not given here.
What was measured:
diet-induced obese mice = details: 0.5% w/w in diet; cited from earlier work
FXR = molecular target: T1, FXR (Homo sapiens, UniProt Q96RI1); assay: Alphascreen coactivator recruitment assay; assay type: biochemical; set-up: 10 nM of purified GST-tagged FXR-LBD protein; details: Table 8
T1 sequence (Q96RI1 262-486 limits assumed): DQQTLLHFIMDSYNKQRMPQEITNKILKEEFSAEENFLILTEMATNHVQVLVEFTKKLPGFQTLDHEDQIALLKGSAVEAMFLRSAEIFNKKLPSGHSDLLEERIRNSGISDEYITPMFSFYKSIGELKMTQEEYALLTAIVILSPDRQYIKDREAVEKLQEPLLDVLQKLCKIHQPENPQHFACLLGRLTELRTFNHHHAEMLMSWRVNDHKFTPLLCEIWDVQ

[1] = Choleretic effect (bile flow) in bile fistula rat, id and iv infusion; assay type: in vivo; details: for SV0: maximum bile secretion rate: 1 (μmol/min)/kg bw over 1 h
LXRα = molecular target: T2, LXRα (Homo sapiens, UniProt Q13133); assay: LXR coactivator recruitment (alphascreen); assay type: biochemical
T2 sequence (Q13133 1-447): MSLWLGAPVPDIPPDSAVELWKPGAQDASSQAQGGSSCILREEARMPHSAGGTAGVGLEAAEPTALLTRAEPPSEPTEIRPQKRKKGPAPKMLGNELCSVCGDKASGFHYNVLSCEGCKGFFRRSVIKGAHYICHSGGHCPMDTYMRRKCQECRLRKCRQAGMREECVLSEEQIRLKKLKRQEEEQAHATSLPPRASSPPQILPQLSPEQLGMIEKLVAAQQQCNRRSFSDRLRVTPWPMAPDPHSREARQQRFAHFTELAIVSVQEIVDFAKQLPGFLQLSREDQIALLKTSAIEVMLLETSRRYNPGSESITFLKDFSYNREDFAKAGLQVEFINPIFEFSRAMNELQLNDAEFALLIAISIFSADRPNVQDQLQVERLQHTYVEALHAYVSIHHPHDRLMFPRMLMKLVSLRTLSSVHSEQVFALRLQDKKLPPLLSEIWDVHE

PPARδ = molecular target: T3, PPARδ (Homo sapiens, UniProt Q03181); assay: PPARδ coactivator recruitment assay
T3 sequence (Q03181 211-439 limits assumed): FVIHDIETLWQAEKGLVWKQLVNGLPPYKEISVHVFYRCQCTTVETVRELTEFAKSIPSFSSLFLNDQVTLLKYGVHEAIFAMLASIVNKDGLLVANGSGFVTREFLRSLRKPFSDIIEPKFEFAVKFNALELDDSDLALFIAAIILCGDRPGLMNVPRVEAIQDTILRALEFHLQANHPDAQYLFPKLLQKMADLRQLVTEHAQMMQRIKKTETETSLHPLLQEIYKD

VDR = molecular target: T4, VDR (Homo sapiens, UniProt P11473); assay: VDR coactivator recruitment assay
T4 sequence (P11473 127-423 limits assumed): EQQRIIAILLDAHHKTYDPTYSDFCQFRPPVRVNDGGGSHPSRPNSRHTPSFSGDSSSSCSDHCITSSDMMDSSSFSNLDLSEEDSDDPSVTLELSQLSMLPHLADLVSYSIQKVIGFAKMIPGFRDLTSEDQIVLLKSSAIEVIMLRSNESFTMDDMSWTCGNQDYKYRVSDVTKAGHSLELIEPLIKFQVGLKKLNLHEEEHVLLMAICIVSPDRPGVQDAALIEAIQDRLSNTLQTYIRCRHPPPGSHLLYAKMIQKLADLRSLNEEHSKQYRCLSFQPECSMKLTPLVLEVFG

HepG2 cells [2] = assay: HepG2 cytotoxicity (ATP decrease); details: read-out: CYTOTOXICITY ATP decrease EC50; 4 h
CAR = molecular target: T5, CAR (Homo sapiens, UniProt Q14994); assay: CAR coactivator recruitment (Lanthascreen); assay type: biochemical; details: for EC50: read-out: CAR Activation EC50
T5 construct: purchased Invitrogen
T5 sequence (Q14994 109-352 limits assumed): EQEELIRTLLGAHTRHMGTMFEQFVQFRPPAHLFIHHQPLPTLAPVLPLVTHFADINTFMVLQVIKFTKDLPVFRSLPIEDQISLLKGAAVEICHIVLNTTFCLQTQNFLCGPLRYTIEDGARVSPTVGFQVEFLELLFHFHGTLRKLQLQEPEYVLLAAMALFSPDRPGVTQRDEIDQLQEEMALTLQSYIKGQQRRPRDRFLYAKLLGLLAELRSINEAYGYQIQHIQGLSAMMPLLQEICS
Procedure: CAR: Coactivator Recruitment (Lanthascreen)
Lanthascreen assay (Invitrogen) was used for nulear receptor selectivity assay. The kit uses a terbium-labeled anti-GST antibody, a fluorescein-labeled coactivator peptide, and a NR ligand-binding domain that is tagged with glutathione-S-transferase (GST) in a homogenous mix-and-read assay format. […] Following 1 hour incubation in the dark, TR-FRET measurements were made in the Envision. […] The data was analyzed using GraphPad Prism using the sigmoidal curve equation with variable slope to obtain EC50 values.

[3] = Octanol/water partition coefficient (shake-flask); assay type: physicochemical; details: pH 8
bovine serum albumin [4] = molecular target: T6, bovine serum albumin (Bos taurus, UniProt P02769); assay: Albumin binding by equilibrium dialysis; assay type: in vitro ADME; details: 100 μM BA in 5% bovine serum albumin-saline, pH 7.2
T6 sequence (P02769 25-607): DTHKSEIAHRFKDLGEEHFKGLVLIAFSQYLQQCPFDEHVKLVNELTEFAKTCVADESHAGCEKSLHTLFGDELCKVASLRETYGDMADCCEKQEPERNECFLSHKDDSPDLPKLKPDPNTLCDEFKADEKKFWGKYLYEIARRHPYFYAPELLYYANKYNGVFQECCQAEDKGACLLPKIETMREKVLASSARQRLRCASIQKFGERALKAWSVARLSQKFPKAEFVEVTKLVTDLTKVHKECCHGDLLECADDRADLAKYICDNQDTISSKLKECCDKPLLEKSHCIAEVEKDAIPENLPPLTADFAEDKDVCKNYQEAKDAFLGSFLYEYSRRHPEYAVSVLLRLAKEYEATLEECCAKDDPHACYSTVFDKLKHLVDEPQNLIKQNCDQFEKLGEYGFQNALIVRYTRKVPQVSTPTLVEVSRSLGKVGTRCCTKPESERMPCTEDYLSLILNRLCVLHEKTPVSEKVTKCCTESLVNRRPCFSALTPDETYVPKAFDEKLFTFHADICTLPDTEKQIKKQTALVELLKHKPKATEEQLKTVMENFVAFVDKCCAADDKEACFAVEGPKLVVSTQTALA
Procedure: The extent of albumin binding was evaluated by equilibrium dialysis at a fixed BA-albumin ratio. BA was dissolved at a concentration of 100 μM in 5% bovine serum albumin-saline solution (pH 7.2) and left to stand for 24 h at 25° C. Two milliliters of this solution was dialyzed in cellulose sacs having a molecular weight cut-off of 12-14,000 against 25 ml of saline solution. The system was equilibrated by mechanical gently shaking for 72 h at 25° C. BA concentrations of the dialyzed solution (corresponding to the free unbound fraction) and of the starting solution were determined with HPLC-ESI-MS/MS in the same conditions of the previous analysis.
The percent of albumin binding was calculate from the initial BA concentration and from the unbound concentration in the dialyzed fraction.

[5] = Critical micellar concentration by surface tension; assay type: physicochemical; details: […] NaCl water solution
Procedure: The critical micellar concentration (CMC) was determined by surface tension (ST) measurements using a maximum bubble-pressure method which give surface tension values […] by potential impurities like static methods are. The tensiometer was a […] Research Corp., Milwaukee, Wis.) equipped with two glass probes of 0.5 and 4.0 mm diameters connected to a source of nitrogen. […] The surface tension values were plotted against the logarithm of the bile salt concentration; the regression lines corresponding to the two parts of the curve (monomeric and micellar phases) were calculated using the method of least squares, and the intersection of the lines was taken as the CMC value. From the ST vs concentration curves the value of the surface tension at the CMC (equilibrium between monomers and multimers species) was also calculated giving information about the detergency power which is related to the size of the micelles with associate surface tension lowering capacity. The CMC was evaluated by surface tension measurements in non equilibrium conditions i.e. in conditions that impurities slightly affect the surface tension results (FIG. 10).

Water solubility = details: 0.1 M HCl
bovine serum albumin [6] = molecular target: T6, bovine serum albumin; details: values from literature; cited from earlier work
[7] = values from literature; cited from earlier work
[8] = values from literature; cited from earlier work; remark: listed apart in the source
[9] = values from literature; cited from earlier work; remark: listed apart in the source
in vitro [10] = details: human, s9
wild-type mice = assay: Locomotor activity of wild-type mice given Ex-4; assay type: in vivo, mouse
Description: To further evaluate the metabolic role of enhanced TGR5 signaling, we assessed the impact of transgenic overexpression of TGR5 in vivo in the context of DIO in mice. TGR5 transgenic mice (TGR5-Tg) were generated by oocyte injection of the bacterial artificial chromosome (BAC) RP23-278N1. […] The absence of weight gain in TGR5-Tg mice, in the wake of an increase in energy expenditure, was explained by a reduction of locomotor activity. Since GLP-1 receptor knockout mice display a marked hyperactivity (Hansotia et al., 2007, J. Clin. Invest. 117, 143-152), we administered the GLP-1 receptor agonist Ex-4 to wild-type mice in order to assess whether the decrease in locomotor activity in TGR5-Tg mice could be linked to GLP-1 secretion.

in vitro [11] = details: human, HepG2 cells
HepG2 cells [12] = assay: cells; details: Homo sapiens, HepG2, 4 h, read-out: NECROSIS LDH release EC50
HepG2 cells [13] = assay: cells; details: Homo sapiens, HepG2, 4 h, read-out: APOPTOSIS Caspase-3 activation EC50
TGR5 = molecular target: T7, TGR5 (Homo sapiens, UniProt Q8TDU6); assay: TGR5 receptor in vitro assay (Table 1); assay type: cell-based
T7 sequence (Q8TDU6 1-330): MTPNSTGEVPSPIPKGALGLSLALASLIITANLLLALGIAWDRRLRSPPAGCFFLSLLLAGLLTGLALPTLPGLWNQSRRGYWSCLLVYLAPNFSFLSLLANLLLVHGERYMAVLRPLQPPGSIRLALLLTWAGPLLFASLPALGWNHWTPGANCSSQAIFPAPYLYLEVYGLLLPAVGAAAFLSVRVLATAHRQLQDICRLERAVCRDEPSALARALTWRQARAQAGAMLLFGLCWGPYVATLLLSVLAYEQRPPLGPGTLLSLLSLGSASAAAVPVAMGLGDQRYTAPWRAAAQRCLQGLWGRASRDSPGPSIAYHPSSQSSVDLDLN

intestinal bacteria = assay: Metabolic stability in human stool culture (7α-dehydroxylation); assay type: in vitro ADME
Procedure: Homogenized fresh human stools (500 mg) were transferred into sterile vials to which 5 mL of sterilized chopped meat-glucose medium (Scott Lab., Fiskville, R.I.) was added. BA was then added at a final concentration of 0.05 mM. […] The samples were centrifuged at 3500 rpm for 10 min; from the supernatant the BA were isolated by C-18 solid-phase extraction and analyzed by TLC and HPLC-ES-MS/MS.
Thin-layer chromatography (TLC), utilizing silica gel 0.25 mm thickness plates (Merck, Darmstat, Germany), was employed as the first screening test. The solvent system used for the separation of conjugated BA was composed of propionic acid/isoamyl acetate/water/N-propanol (3:4:1:2, v/v/v/v; solvent I), and that of the unconjugated BA was acetic acid/carbon tetrachloride/isopropyl ether/isoamyl acetate/water/N-propanol/benzene (1:4:6:8:2:2, v/v/v/v/v/v; solvent II).

[14] = Biliary secretion and metabolism in bile fistula rat, id and iv infusion; details: rat, bile, 1 μmol/kg/min

C[C@H](CCC(=O)O)[C@H]1CC[C@H]2[C@@H]3[C@H](O)C[C@@H]4C[C@H](O)CC[C@]4(C)[C@H]3C[C@H](O)[C@]12C [CA, cholic acid]
prevention and treatment of metabolic syndrome (diet-induced obese mice): efficiently prevents and treats metabolic syndrome | FXR Activation EC50 (FXR): No activity | SV0: maximum bile secretion rate ([1]; id infusion): 64 ± 6 (μL/min)/kg bw | SV0: maximum bile secretion rate ([1]; iv infusion): (78 ± 8) (μL/min)/kg bw | LXRα Activation EC50 (LXRα): No activity

C[C@H](CCC(=O)O)[C@H]1CC[C@H]2[C@@H]3[C@@H](O)C[C@@H]4C[C@H](O)CC[C@]4(C)[C@H]3CC[C@]12C [UDCA]
PPARδ Activation EC50 (PPARδ): No activity | VDR Activation EC50 (VDR): No activity | EC50 (HepG2 cells [2]): > 1000 µM | EC50 (CAR): > 250 µM | LogPA- (1-octanol-water partition coefficient, ionized species) [3]: 2.2 | Albumin Binding (bovine serum albumin [4]): 94% | CMC […] Na+ [5]: 6.0 mM | STCMC (surface tension at CMC) [5]: 50.5 Dyne/cm | Ws (water solubility, protonated species) (Water solubility): 7.5 µM | LXRα Activation EC50 (LXRα): No activity

C[C@H](CCC(=O)O)[C@H]1CCC2C3C(CC[C@@]21C)[C@@]1(C)CC[C@@H](O)CC1[C@@H](C)[C@@H]3O (some centres unmarked) [Compound 6MUDCA]
Albumin Binding (bovine serum albumin [6]): 80* % | Ws (water solubility, protonated species) [7]: 28* μM | LogPA- (1-octanol-water partition coefficient, ionized species) [8]: 1.3* | CMC […] Na+ [9]: 4.2* mM

O=c1ccc2ccc(O)cc2o1 [7-Hydroxy Coumarine, reference compound]
half-life (in vitro [10]): 8.5 min

Ex-4: the GLP-1 receptor agonist Ex-4
locomotor activity (wild-type mice): efficiently and dose-dependently reduced locomotor activity

C[C@H](CCC(=O)O)[C@H]1CC[C@H]2[C@@H]3CC[C@@H]4C[C@H](O)CC[C@]4(C)[C@H]3CC[C@]12C [LCA, lithocholic acid]
FXR Activation EC50 (FXR): No activity | PPARδ Activation EC50 (PPARδ): No activity | VDR Activation EC50 (VDR): No activity | EC50 at 4 h (in vitro [11]): 84 µM | CAR Activation EC50 (CAR): No activity | EC50 (HepG2 cells [12]): 105 µM | EC50 (HepG2 cells [13]): 65 µM | LXRα Activation EC50 (LXRα): No activity

C[C@H](CCC(=O)O)[C@H]1CC[C@H]2[C@@H]3[C@H](O)C[C@@H]4C[C@H](O)CC[C@]4(C)[C@H]3CC[C@]12C [CDCA, ChenoDeoxyCholicAcid]
TGR5 Data Efficacy (TGR5): 100% | PPARδ Activation EC50 (PPARδ): No activity | VDR Activation EC50 (VDR): No activity | metabolism (7-dehydroxylation) to lithocholic acid (intestinal bacteria): almost completely metabolized | half-life time (intestinal bacteria; human): almost one hour | EC50 (CAR): > 250 µM | maximum bile flow rate ([1]; duodenal infusion 1 μmol/kg/min, 1 hour): ≤ 4.8 mL/h/kg | SV0: maximum bile secretion rate ([1]; id infusion): 57 ± 7 (μL/min)/kg bw | SV0: maximum bile secretion rate ([1]; iv infusion): (51 ± 9) (μL/min)/kg bw | LogPA- (1-octanol-water partition coefficient, ionized species) [3]: 2.2 | EC50 (HepG2 cells [12]): > 1000 µM | Albumin Binding (bovine serum albumin [4]): 93% | CMC […] Na+ [5]: 3.2 mM | STCMC (surface tension at CMC) [5]: 45.5 Dyne/cm | EC50 (HepG2 cells [13]): 890 µM | LXRα Activation EC50 (LXRα): No activity | fraction unbound at 4 h ([14]; iv): 0.04 | fraction unbound at 4 h ([14]; other: duodenal infusion (id)): 0.03 ± 0.01

Reference: patent publication US8114862B2, “TGR5 modulators and methods of use thereof” (Intercept Pharmaceuticals, Inc., priority 2008, dated 2012)
